The source of these data is PMC9127252, “Synthesis of sulfur karrikin bioisosteres as potential neuroprotectives” (Beilstein Journal of Organic Chemistry, 2022).

One may read the IC50 as the midpoint of a concentration-inhibition curve.

Assay [1] concerns the target T1, AChE from Electrophorus electricus (Electrophorus electricus, UniProt O42275).
T1 construct: purchased Sigma-Aldrich, Germany
The assay can be described thus: biochemical. The settings on record: for AChE residual activity at 10 µM (% of untreated): 10 µM compound, t = 25 min, triplicates, mean ± SD; for inhibition at 10 µM: read-out: AChE inhibition at 10 µM screening concentration. As to the method: The compounds were further tested for their ability to inhibit AChE in vitro [24].
Acetylcholine esterase (AChE) assay
Determination of AChE activity was based on the original method by Ellman adapted for 384 well plate format. The plates were first pre-spotted with 20 nL of 10 mM DMSO solution of the compound with the use of ECHO 550® liquid handler (to reach 10 µM final concentration). Master mix solution was prepared alongside and kept on ice until dispensed in the wells. The mix consisted of 1.5 mM acetylthiocholine iodide (ATCI), 1.5 mM 5,5-dithiobis(2-nitrobenzoic acid) (DTNB) and 30 mU/mL AChE from Electrophorus electricus (Sigma-Aldrich, Germany) in 50 mM TRIS-Cl buffer, pH 7.5, containing 0.04% BSA, 50 mM NaCl and 10 mM MgCl2. 20 µL of the master mix was then dispensed into the wells of a transparent flat-bottom 384-well plate (Nunc). The microplate was briefly but vigorously mixed on an orbital shaker and placed into a Tecan SPARK microplate reader where the absorbance at 405 nm was continuously monitored for 25 min (linear range). In parallel, the no-enzyme control reaction was run to exclude interference of the compounds with the assay. The background value was subtracted from the signal of the enzyme-containing wells. Enzyme inhibition was expressed as a signal percentage compared to an uninhibited reaction at t = 25 min: % residual activity = (A405 sample/A405 control) × 100. […]
were analysed with the use of Prism 9 (GraphPad Inc., San Diego, USA). The values were measured in triplicates, and the results are p resented as means ± SD. […]

The next assay deals with AChE. Also noted: method as in PMID 31014820. The settings on record: cited from earlier work; for inhibition effects on AChE: in words.
In the next assay the test system is MAO-B. More on the design: method as in PMID 31014820. The conditions noted are these: cited from earlier work.
In the next assay the test system is seed germination. Also noted: method as in doi:10.1016/j.sajb.2013.12.003. The conditions noted are these: compared with KAR1; cited from earlier work.

T1 sequence (O42275 24-633): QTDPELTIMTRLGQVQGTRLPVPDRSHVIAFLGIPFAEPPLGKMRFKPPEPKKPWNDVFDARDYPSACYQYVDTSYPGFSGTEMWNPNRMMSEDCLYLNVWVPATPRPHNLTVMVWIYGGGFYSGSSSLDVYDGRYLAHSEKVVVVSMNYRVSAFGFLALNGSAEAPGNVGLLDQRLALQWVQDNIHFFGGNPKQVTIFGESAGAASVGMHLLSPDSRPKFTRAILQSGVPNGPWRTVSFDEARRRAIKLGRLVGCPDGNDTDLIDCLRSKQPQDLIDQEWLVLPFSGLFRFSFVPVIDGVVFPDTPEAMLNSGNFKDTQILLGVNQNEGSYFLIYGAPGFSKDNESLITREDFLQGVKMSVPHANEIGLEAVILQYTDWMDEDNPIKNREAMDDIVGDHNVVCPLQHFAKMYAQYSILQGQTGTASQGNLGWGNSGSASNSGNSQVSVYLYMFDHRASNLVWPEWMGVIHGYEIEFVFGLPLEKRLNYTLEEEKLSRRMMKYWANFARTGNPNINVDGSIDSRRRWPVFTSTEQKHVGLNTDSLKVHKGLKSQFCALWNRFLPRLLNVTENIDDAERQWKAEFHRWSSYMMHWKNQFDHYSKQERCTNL

Turning to `Cc1occc2c(C)c(=S)oc1-2` [Compound 12], in assay [1], the “AChE residual activity at 10 µM (% of untreated)” value is 91 ± 2 % of untreated.
On to `Cc1c2ccscc-2oc1=O` [Compound 8, 3-methyl-2H-thiopyrano[3,4-b]furan-2-one], for which, in the assay with AChE, the IC50 was 80 ± 6 nM and the “inhibition effects on AChE” value is on record as “submicromolar”. Also, the IC50 with MAO-B is 30 nM. In the assay with seed germination, the germination activity result is recorded as “lower germination activity than KAR1”.
Take `Cc1sccc2c(C)c(=S)oc1-2` [Compound 29]: in assay [1], the “AChE residual activity at 10 µM (% of untreated)” value is 86 ± 2 % of untreated and the inhibition at 10 µM was approximately 15%.
With `S=c1cc2ccscc-2o1` [Compound 30], the “AChE residual activity at 10 µM (% of untreated)” value in assay [1] is 92 ± 1 % of untreated.
The same measure, in the same setting: then `Cc1c2ccscc-2oc1=S` [Compound 27], with 97 ± 5 % of untreated; and `Cc1sccc2c(C)c(=O)oc1-2` [Compound 21], with 91 ± 2 % of untreated.
Still for that read-out and setting: in the case of `S=c1cc2ccocc-2o1` [Compound 10] it was 99 ± 3 % of untreated; in that of `Cc1c2ccocc-2oc1=S` [Compound 9], 95 ± 8 % of untreated.
On to `O=c1cc2ccscc-2o1` [Compound 26], for which the “AChE residual activity at 10 µM (% of untreated)” value in assay [1] was 99 ± 0.4 % of untreated.
Consider `Cc1cc2c(C)c(=S)oc-2cs1` [Compound 28], for which, in assay [1], the “AChE residual activity at 10 µM (% of untreated)” value is 85 ± 1 % of untreated and the inhibition at 10 µM was approximately 15%.
Consider `Cc1cc2c(C)c(=O)oc-2cs1` [Compound 20], for which the “AChE residual activity at 10 µM (% of untreated)” value in assay [1] was 90 ± 2 % of untreated.
Same read-out and setting: in the case of `Cc1cc2c(C)c(=S)oc-2co1` [Compound 11] it was 93 ± 3 % of untreated.
For `Cc1cc2c(C)c(=O)oc-2co1` [Compound 3, reference compound], in the assay on AChE, the IC50 is 370 ± 20 nM and the “inhibition effects on AChE” value is “submicromolar”.
